Laboratory results reported in patent publication US7476741B2, “Substituted 4H-chromens, 2H-chromenes, chromans and analogs as activators of caspases and inducers of apoptosis and the use thereof” (Cytovia, Inc., priority 2002, dated 2009).

Tests used:
ZR-75-1 = experiment: Caspase cascade activation assay (N-(Ac-DEVD)-N'-ethoxycarbonyl-R110 fluorogenic substrate) in ZR-75-1 cells; type: cell-based; settings: ZR-75-1 human breast cancer cells, 24 h incubation; sigmoidal dose-response; read-out: ZR-75-1 EC50 (nM) (potency)
Procedure: (§1) Human breast cancer cell lines T-47D and ZR-75-1 were grown according to media component mixtures designated by American Type Culture Collection +10% FCS (Invitrogen Corporation), in a 5% CO2−95% humidity incubator at 37° C. T-47D and ZR-75-1 cells were maintained at a cell density between 30 and 80% confluency at a cell density of 0.1 to 0.6×10^6 cells/mL. Cells were harvested at 600×g and resuspended at 0.65×10^6 cells/mL into appropriate media +10% FCS. An aliquot of 45 μL of cells was added to a well of a 96-well microtiter plate containing 5 μL of a 10% DMSO in RPMI-1640 media solution containing 0.16 to 10 μM of 4-(3-bromo-4,5-dimethoxyphenyl)-3-cyano-4H-indolo[4,5-b]pyran (Example 1) or other test compound (0.016 to 1 μM final). An aliquot of 45 μL of cells was added to a well of a 96-well microtiter plate containing 5 μL of a 10% DMSO in RPMI-1640 media solution without test compound as the control sample. The samples were mixed by agitation and then incubated at 37° C. for 24 h in a 5% CO2-95% humidity incubator. After incubation, the samples were removed from the incubator and 50 μL of a solution containing 20 μM of N-(Ac-DEVD)-N′-ethoxycarbonyl-R110 (SEQ ID No.:1) fluorogenic substrate (Cytovia, Inc.; U.S. Pat. No. 6,335,429), 20% sucrose (Sigma), 20 mM DTT (Sigma), 200 mM NaCl (Sigma), 40 mM Na PIPES buffer pH 7.2 (Sigma), and 500 μg/mL lysolecithin (Calbiochem) was added. The samples were mixed by agitation and incubated at room temperature. Using a fluorescent plate reader (Model 1420 Wallac Instruments), an initial reading (T=0) was made approximately 1-2 min after addition of the substrate solution, employing excitation at 485 nm and emission at 530 nm, to determine the background fluorescence of the control sample. After the 3 h incubation, the samples were read for fluorescence as above (T=3 h).
(§2) The Relative Fluorescence Unit values (RFU) were used to calculate the sample readings as follows: RFU(T=3h)−Control RFU(T=0)=Net RFU(T=3h)
(§3) The activity of caspase cascade activation was determined by the ratio of the net RFU value for 4-(3-bromo-4,5-dimethoxyphenyl)-3-cyano-4H-indolo[4,5-b]pyran or other test compound to that of control samples. The EC50 (nM) was determined by a sigmoidal dose-response calculation (Prism 2.0, GraphPad Software Inc.).

T-47D = experiment: Caspase cascade activation assay (N-(Ac-DEVD)-N'-ethoxycarbonyl-R110 fluorogenic substrate) in T-47D cells; type: cell-based; settings: T-47D human breast cancer cells, 24 h incubation; ratio of net RFU of compound to control
Procedure: as §1, §2, §3

SMILES | EC50 (ZR-75-1) [nM] | T-47D Ratio (caspase activity) (T-47D)
COc1cc(C2C(C#N)=COc3c2ccc2[nH]ccc32)cc(Br)c1OC (stereo not shown) [Example 1, 4-(3-Bromo-4,5-dimethoxyphenyl)-3-cyano-4H-indolo[4,5-b]pyran] | 32 | 7.3
COc1ccc2c(c1)OC=C(C#N)C2c1cc(OC)c(OC)c(OC)c1 (stereo not shown) [Example 8, 3-Cyano-7-methoxy-4-(3,4,5-trimethoxyphenyl)-4H-chromene] | 210 | 6.7
